Columns and labels:
[1] = target: ERK2 (Homo sapiens, UniProt P28482); experiment: Kinase inhibition under standard conditions, ERK2; assay type: biochemical
[2] = target: GSK3; experiment: Kinase inhibition under standard conditions, GSK3; assay type: biochemical
[3] = target: PKA; experiment: Kinase inhibition under standard conditions, PKA; assay type: biochemical
[4] = target: PKC; experiment: Kinase inhibition under standard conditions, PKC; assay type: biochemical
[5] = target: CDK1 (Homo sapiens, UniProt P06493); experiment: Kinase inhibition under standard conditions, CDK1; assay type: biochemical
CDK1, sequence (P06493 whole entry, species assumed): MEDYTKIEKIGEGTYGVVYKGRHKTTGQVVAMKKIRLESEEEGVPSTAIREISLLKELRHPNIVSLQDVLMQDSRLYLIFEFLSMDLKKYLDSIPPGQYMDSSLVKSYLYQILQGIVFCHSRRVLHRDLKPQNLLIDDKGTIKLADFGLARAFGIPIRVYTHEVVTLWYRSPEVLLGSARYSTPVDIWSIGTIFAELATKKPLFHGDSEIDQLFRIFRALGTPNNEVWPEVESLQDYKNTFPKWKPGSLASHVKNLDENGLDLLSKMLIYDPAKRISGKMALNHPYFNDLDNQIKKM
CDK1, sequence (P14635 whole entry partner, species assumed): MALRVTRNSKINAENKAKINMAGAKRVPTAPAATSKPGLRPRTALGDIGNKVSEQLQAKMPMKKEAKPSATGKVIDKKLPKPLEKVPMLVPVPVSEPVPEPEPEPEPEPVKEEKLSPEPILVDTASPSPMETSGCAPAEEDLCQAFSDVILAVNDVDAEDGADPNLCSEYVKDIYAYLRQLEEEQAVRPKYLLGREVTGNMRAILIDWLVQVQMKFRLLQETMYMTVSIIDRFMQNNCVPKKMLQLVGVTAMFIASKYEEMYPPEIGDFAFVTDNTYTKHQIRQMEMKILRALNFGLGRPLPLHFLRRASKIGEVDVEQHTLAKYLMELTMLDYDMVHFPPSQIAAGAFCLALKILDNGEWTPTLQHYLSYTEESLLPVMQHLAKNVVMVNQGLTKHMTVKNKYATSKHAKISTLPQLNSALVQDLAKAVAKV

[6] = Propper et al.; cited from earlier work
[7] = test system: MDA-MB-231 breast cancer cell line; experiment: Long-term growth inhibition, crystal violet staining; assay type: cell-based, human
Method: The human estrogen receptor and EGF receptor negative MDA-MB-231 (HTB 26) breast cancer cell line (obtained from ATCC, Rockville, USA) were cultured in McCoy's 5A medium containing L-glutamine, 2.2 g/l NaHCO3 and 5% fetal calf serum. Cells were maintained in a water saturated atmosphere (95% air/5% carbon dioxide) at 37° C. in 75-cm^2 culture flasks, and were serially passaged following trypsinization using 0.05% trypsin/0.02% EDTA.
(§1) For proliferation assays tumor cell suspensions (100 μl/well) were seeded into 96-well flat bottomed microtitration plates at a density of ca. 15 cells/microscopic field (magnification 320×). After 2-3 days the culture medium was removed by suction and replaced by fresh medium (200 μl/well) containing varying concentrations of the compound of the formula 1 or vehicle (0.5% DMSO). Compound 1 was added as […] concentrated feed solutions. On every plate 16 wells served as controls and 16 wells were used per concentration of 1. After various times of incubation the cells were fixed with glutardialdehyde and stored in a refrigerator. At the end of the assay all plates were processed simultaneously (staining with 0.02% aqueous crystal violet solution (100 μl/well). Excess dye was removed by rinsing the trays with water for 20 min. The stain bound by the cells was redissolved in 70% ethanol (180 μl/well) while shaking the microplates for about 3 hours. Absorbance (proportional to cell mass) was measured at 578 nm using a BIOTEK 309 Autoreader. The results (mean values±standard deviation) were plotted as growth curves.

[8] = test system: HT29 colon cancer cell line; experiment: as above; assay type: cell-based, human; conditions: 10 nM
Method: as §1
The HT29 human colon cancer cell line (obtained from ATCC, Rockville, USA) was cultured as above. Treatment with the compound of the formula 1 and analysis of growth inhibition was performed analogous to Example 3.

[9] = test system: U373 glioblastoma cell line; experiment: as above; assay type: cell-based, human; conditions: U373, over a week
Method: as §1
The EGF-receptor independent U373 Human Glioblastoma cell line (obtained from ATCC, Rockville, USA) was cultured as above. Treatment with the compound of the formula 1 and analysis of growth inhibition was performed analogous to Example 3.

[10] = test system: target kinases versus GSK3, PKC and PKA; experiment: Kinase potency and selectivity profile under identical kinase assay conditions; assay type: biochemical
From the text: Relative to the compounds disclosed in WO00/01699 and WO04/048384, compounds of the structural formula 1-4 have a higher degree of selectivity in favor of several antiproliferative kinases, as exemplified for the representative compound 1 and directly related compounds 7 of WO04/048384 and 8-9 of WO00/01699, containing the general scaffold of 10, respectively.

[11] = test system: breast cancer tumor cell lines; conditions: large panel, Konecny et al.; cited from earlier work

ERK2, sequence (P28482 whole entry, species assumed): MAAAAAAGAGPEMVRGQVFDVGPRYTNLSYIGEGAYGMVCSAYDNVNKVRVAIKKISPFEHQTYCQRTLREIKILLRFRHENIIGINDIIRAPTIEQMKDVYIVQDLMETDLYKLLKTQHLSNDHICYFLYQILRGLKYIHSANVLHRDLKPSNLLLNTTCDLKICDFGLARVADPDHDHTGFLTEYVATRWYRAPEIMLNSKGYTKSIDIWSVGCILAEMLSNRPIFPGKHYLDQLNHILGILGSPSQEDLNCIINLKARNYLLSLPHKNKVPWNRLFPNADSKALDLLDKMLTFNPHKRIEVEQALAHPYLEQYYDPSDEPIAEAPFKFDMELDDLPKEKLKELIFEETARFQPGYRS

## CNC(=O)[C@@]1(O)CC2CC1n1c3ccccc3c3c4c(c5c6ccccc6n2c5c31)C(=O)NC4 (some centres unmarked) [Compound 9]
[1]
  IC50: 480 nM
[2]
  IC50: 400 nM
[3]
  IC50: 550 nM
[4]
  IC50: 210 nM
[5]
  IC50: 110 nM

## CO[C@@H]1[C@H](N(C)C(=O)c2ccccc2)C[C@H]2O[C@]1(C)n1c3ccccc3c3c4c(c5c6ccccc6n2c5c31)C(=O)NC4 [PKC-412]
[6]
  human serum binding: extreme human serum binding

## COC(=O)[C@@]1(N)CC2OC1(C)n1c3ccccc3c3c4c(c5c6ccccc6n2c5c31)C(=O)NC4 (some centres unmarked) [Compound 6]
[1]
  IC50: 870 nM
[7]; 10 nM, 1 week of exposure
  growth of MDA-MB-231 cells: virtually ineffective
[7]; MDA-MB-231, 1 week
  concentration required for a similar effect as 10 nM of 1: ten-fold higher concentration
[8]
  proliferation of HT29 cells: completely ineffective
[2]
  IC50: > 10000 nM
[3]
  IC50: > 10000 nM
[9]
  concentration required for a similar effect as 10 nM of 1: ten-fold higher concentration
[4]
  IC50: > 10000 nM
[5]
  IC50: 650 nM

## C[C@]12O[C@H](C[C@]1(N)C(N)=O)n1c3ccccc3c3c4c(c5c6ccccc6n2c5c31)C(=O)NC4=O [Compound 4]
[10]
  potency and selectivity profile compared with 1: virtually identical potency and selectivity profile as 1

## C[C@]12O[C@H](C[C@]1(N)C(N)=O)n1c3ccccc3c3c4c(c5c6ccccc6n2c5c31)CNC4=O [Compound 2]
[10]
  potency and selectivity profile compared with 1: virtually identical potency and selectivity profile as 1

## CS(=O)(=O)CCNCc1ccc(-c2ccc3ncnc(Nc4ccc(OCc5cccc(F)c5)c(Cl)c4)c3c2)o1 [Tykerb]
[11]
  share of breast cancer tumor cell lines with growth inhibitory activity: about 20%

## CNC(=O)[C@@]1(O)CC2CC1n1c3ccccc3c3c4c(c5c6ccccc6n2c5c31)C(=O)NC4=O (some centres unmarked) [Compound 8]
[1]
  IC50: 120 nM
[2]
  IC50: 37 nM
[3]
  IC50: 78 nM
[4]
  IC50: 120 nM
[5]
  IC50: 63 nM

## CNC(=O)[C@@]1(N)C[C@H]2O[C@]1(C)n1c3ccccc3c3c4c(c5c6ccccc6n2c5c31)C(=O)NC4=O [Compound 3]
[10]
  potency and selectivity profile compared with 1: virtually identical potency and selectivity profile as 1

## CNC(=O)[C@@]1(N)CC2CC1n1c3ccccc3c3c4c(c5c6ccccc6n2c5c31)C(=O)NC4 (some centres unmarked) [Compound 7]
[1]
  IC50: 600 nM
[2]
  IC50: 350 nM
[3]
  IC50: 440 nM
[4]
  IC50: 260 nM
[5]
  IC50: 180 nM
